# Test results: PMC10741632, “Detection of Dibutyl Phthalate in Surface Water by Fluorescence Polarization Immunoassay” (Biosensors, 2023)
# Test system: monoclonal antibody against DBP (MAb-DBP)
# Assay: competitive fluorescence polarization immunoassay with DBP-AMF tracer ([…] MAb-DBP, […] tracer)
# Type: binding, Mus musculus
compound,measurement,value
CCCCOC(=O)c1ccccc1C(=O)OCCCC [Dibutyl phthalate],IC50,0.04 ± 0.002 µg/mL
